From PubChem BioAssay (NCI) come the findings set out here.

Test systems include SF-539 CNS; OVCAR-4 ovarian; T-47D breast; NCI/ADR-RES ovarian; SK-MEL-5 melanoma; CAKI-1 renal; KM12 colon; SNB-19 CNS; UO-31 renal; MOLT-4 leukemia.
Holding throughout (test): NCI tumour cell line growth inhibition, 48 h

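Cells were grown in 96-well plates and exposed to each compound for 48 hours at five concentrations; endpoints were interpolated linearly between bracketing concentrations, or set to the highest concentration if not reached. GI50 marks 50% less growth. At the TGI there is no net growth.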

Regarding `C#CCC(Cc1cnc2nc(N)nc(N)c2n1)c1ccc(C(=O)N[C@@H](CCC(=O)O)C(=O)O)cc1` (stereo not given in full), the GI50 with SF-539 CNS was below 0.01 µM; in the assay with OVCAR-4 ovarian, 0.975 µM; in the assay with T-47D breast, above 100 µM; in the assay on NCI/ADR-RES ovarian, below 0.01 µM; in the assay with SK-MEL-5 melanoma, below 0.01 µM; in the assay with CAKI-1 renal, below 0.01 µM. The GI50 was below 0.01 µM in the assay with KM12 colon, below 0.0131 µM in the assay on SNB-19 CNS, below 0.01 µM with UO-31 renal and below 0.01 µM in the assay with MOLT-4 leukemia. For the same molecule, the TGI in the assay with SF-539 CNS, in the assay on OVCAR-4 ovarian, in the assay on T-47D breast, in the assay with NCI/ADR-RES ovarian, with SK-MEL-5 melanoma and in the assay with CAKI-1 renal was above 100 µM in each case. In addition, the TGI in the assay on KM12 colon, with SNB-19 CNS, in the assay on UO-31 renal and with MOLT-4 leukemia was above 100 µM each time.

For `COC(=O)C1=C(C(=O)ON)C2C=CC1(C(Cc1ccccc1)Nc1ccccc1)O2` (stereo not given), the GI50 was 11.5 µM in the assay on SF-539 CNS; 1.66 µM with OVCAR-4 ovarian; 1.46 µM with T-47D breast; 14.7 µM in the assay with NCI/ADR-RES ovarian; 14.1 µM with SK-MEL-5 melanoma; 1.63 µM in the assay on CAKI-1 renal. The GI50 in the assay with KM12 colon was 15.1 µM; in the assay with SNB-19 CNS, 14.8 µM; in the assay with UO-31 renal it was 1.47 µM; with MOLT-4 leukemia, 2.9 µM. Moreover, the TGI came to 23.7 µM with SF-539 CNS; 3.12 µM in the assay on OVCAR-4 ovarian; 3.25 µM with T-47D breast; 36.2 µM in the assay on NCI/ADR-RES ovarian; 27.2 µM in the assay on SK-MEL-5 melanoma; 3.03 µM in the assay on CAKI-1 renal. The TGI was 30 µM with KM12 colon, 27.9 µM with SNB-19 CNS, 2.8 µM in the assay on UO-31 renal and 9.49 µM in the assay with MOLT-4 leukemia.

As to `CC(C)[C@H](CO)Nc1nc(Nc2ccc(C(=O)NCCNS(=O)(=O)c3cccc4c(N(C)C)cccc34)c(Cl)c2)c2ncn(C(C)C)c2n1`, the GI50 in the assay with SF-539 CNS is 1.68 µM; with OVCAR-4 ovarian it was 7.71 µM; in the assay on T-47D breast, 2.93 µM; with NCI/ADR-RES ovarian it was above 100 µM; in the assay with SK-MEL-5 melanoma, 2.07 µM; with CAKI-1 renal, 5.78 µM. The GI50 with KM12 colon was 0.447 µM; with SNB-19 CNS, 2.93 µM; with UO-31 renal it was 9.78 µM; in the assay with MOLT-4 leukemia, 3.51 µM. Besides, the TGI is 4.39 µM in the assay with SF-539 CNS; above 100 µM in the assay on OVCAR-4 ovarian; above 82.5 µM with T-47D breast; above 100 µM with NCI/ADR-RES ovarian; 5.16 µM in the assay on SK-MEL-5 melanoma; above 100 µM with CAKI-1 renal. The TGI in the assay on KM12 colon is 2.72 µM; with SNB-19 CNS it was above 100 µM; in the assay on UO-31 renal, above 100 µM; with MOLT-4 leukemia, above 100 µM.

As to `Nc1c(Br)cc(Br)c2c1[nH]c(=O)c1ccccc12`, the GI50 in the assay on SF-539 CNS was 42 µM; with OVCAR-4 ovarian, 1.34 µM; in the assay with T-47D breast it was 2.41 µM; in the assay on NCI/ADR-RES ovarian, 6.68 µM; in the assay with SK-MEL-5 melanoma, 34 µM; in the assay with CAKI-1 renal, 3.69 µM. For the same molecule, the GI50 is above 100 µM in the assay with KM12 colon, 10.2 µM with SNB-19 CNS, 2.17 µM in the assay on UO-31 renal and 18.4 µM in the assay on MOLT-4 leukemia. Also, the TGI with SF-539 CNS was above 100 µM; in the assay with OVCAR-4 ovarian, 3.43 µM; with T-47D breast, 17.5 µM; in the assay with NCI/ADR-RES ovarian it was 66.7 µM; in the assay on SK-MEL-5 melanoma, above 100 µM; in the assay with CAKI-1 renal, 21.3 µM. In addition, the TGI was above 100 µM in the assay with KM12 colon, 57.5 µM in the assay with SNB-19 CNS, 5.9 µM in the assay on UO-31 renal and above 63.8 µM with MOLT-4 leukemia.

Consider `Cc1cc2nc3c4cc(N)ccc4n(CCN(C)C)c3nc2cc1C`, for which the GI50 in the assay on SF-539 CNS is 0.839 µM; in the assay on OVCAR-4 ovarian, 1.79 µM; with T-47D breast, 1.71 µM; in the assay with NCI/ADR-RES ovarian, 0.501 µM; in the assay on SK-MEL-5 melanoma it was 1.48 µM; with CAKI-1 renal it was 0.462 µM. Besides, the GI50 is 0.882 µM in the assay on KM12 colon, 0.669 µM with SNB-19 CNS, 0.439 µM with UO-31 renal and 0.376 µM in the assay on MOLT-4 leukemia. In addition, the TGI was 4.66 µM with SF-539 CNS; 9.64 µM with OVCAR-4 ovarian; 12.3 µM with T-47D breast; 9.95 µM with NCI/ADR-RES ovarian; 2.88 µM in the assay with SK-MEL-5 melanoma; 6.28 µM with CAKI-1 renal. In addition, the TGI in the assay on KM12 colon was 7.11 µM; with SNB-19 CNS, 11.4 µM; in the assay with UO-31 renal it was 4.8 µM; in the assay on MOLT-4 leukemia, above 31.9 µM.

Take `COc1cc(-c2nn(-c3cccc(NC(=O)Nc4cc(C(F)(F)F)cc(C(F)(F)F)c4)c3)cc2-c2ccncc2)ccc1Cl`: the GI50 with SF-539 CNS was 0.836 µM; in the assay on OVCAR-4 ovarian, 0.698 µM; in the assay on T-47D breast it was 1.03 µM; in the assay with NCI/ADR-RES ovarian, 1.02 µM; with SK-MEL-5 melanoma, 0.629 µM; in the assay on CAKI-1 renal it was 0.852 µM. Besides, the GI50 is 0.412 µM in the assay with KM12 colon, 0.59 µM in the assay on SNB-19 CNS, 0.612 µM in the assay with UO-31 renal and 1.08 µM in the assay with MOLT-4 leukemia. Besides, the TGI in the assay on SF-539 CNS was found to be 1.75 µM; in the assay on OVCAR-4 ovarian, 12.9 µM; with T-47D breast, 26.7 µM; in the assay with NCI/ADR-RES ovarian it was 7.25 µM; with SK-MEL-5 melanoma it was 1.3 µM; with CAKI-1 renal it was 2.93 µM. The TGI in the assay on KM12 colon was 2.09 µM; with SNB-19 CNS, 4.25 µM; in the assay with UO-31 renal, 1.52 µM; in the assay with MOLT-4 leukemia, 4.48 µM.

For `CCn1c(CN2CCN(Cc3ccccc3)CC2)nc2cc(NC(=O)c3cccs3)ccc21`, the GI50 was 14.6 µM with SF-539 CNS; 16.4 µM with OVCAR-4 ovarian; 6.8 µM in the assay with T-47D breast; 28.9 µM with NCI/ADR-RES ovarian; 11.5 µM with SK-MEL-5 melanoma; 18 µM in the assay on CAKI-1 renal. Also, the GI50 with KM12 colon was 14.8 µM; in the assay with SNB-19 CNS, 27.7 µM; in the assay on UO-31 renal it was 15.3 µM; in the assay with MOLT-4 leukemia, 13.2 µM. Also, the TGI with SF-539 CNS is 28.4 µM; in the assay with OVCAR-4 ovarian, 86.4 µM; with T-47D breast it was 33.8 µM; in the assay with NCI/ADR-RES ovarian, above 100 µM; with SK-MEL-5 melanoma, 24.1 µM; with CAKI-1 renal, 63 µM. In addition, the TGI was 32 µM with KM12 colon, above 100 µM in the assay on SNB-19 CNS, 42.6 µM in the assay with UO-31 renal and 37.9 µM in the assay with MOLT-4 leukemia.
